Assay results from patent US9375004B2 (Bayer Intellectual Property GmbH, priority 2010, dated 2016).

Key:
[1] = tested on: Fusarium nivale (var. majus); assay: Fusarium nivale (var. majus)-test (wheat)/preventive; settings: for Efficacy: preventive, evaluated 5 days after inoculation; for protection: dose of 250 ppm and 500 ppm of active ingredient
Alternaria solani = assay: Alternaria test (tomato)/preventive; format: in vivo; settings: 500 ppm, preventive, evaluated 7 days after inoculation
[2] = logP by HPLC on reversed-phase column (EEC Directive 79/831 Annex V.A8); settings: EEC Directive 79/831 Annex V.A8
Puccinia triticina = assay: Puccinia triticina-test (wheat)/preventive; format: in vivo; settings: 500 ppm, preventive, evaluated 8 days after inoculation
[3] = HPLC on reversed-phase column (C 18)
[4] = HPLC on a reversed-phase column (C 18)

Row | Compound | logP [2, 3] | logP [2, 4] | Efficacy ([1]; 500 ppm) | other results
1 | Cn1cc(C(=O)Nc2ccccc2C2CC2C2CC2)c(C(F)F)n1 (centres unmarked) [2.34 from WO-2003/074491, N-{2-[1,1′-bi(cyclopropyl)-2-yl]phenyl}-3-(difluoromethyl)-1-methyl-1H-pyrazole-4-carboxamide, reference compound] | – | – | 57% | Efficacy ([1]; 500 ppm, listed as 2.34): less than 60%
2 | CC(C)C1C2CCC1c1c(NC(=O)c3cn(C)nc3C(F)F)cccc12 (stereo not drawn) [15.202 (syn/anti 3/7) from WO-2004/035589] [3-(difluoromethyl)-N-(9-isopropyl-1,2,3,4-tetrahydro-1,4-methanonaphthalen-5-yl)-1-methyl-1H-pyrazole-4-carboxamide, reference compound] | – | – | 83% | Efficacy ([1]; 250 ppm): 50%
3 | CC(C)C1C2CCC1c1c(NC(=O)c3cn(C)nc3C(F)F)cccc12 (stereo not drawn) [15.202 (syn/anti 9/1) from WO-2004/035589] [3-(difluoromethyl)-N-(9-isopropyl-1,2,3,4-tetrahydro-1,4-methanonaphthalen-5-yl)-1-methyl-1H-pyrazole-4-carboxamide, reference compound] | – | – | 50% | Efficacy ([1]; 250 ppm): 50%
4 | Cn1cc(C(=O)Nc2cccc3c2C2CCC3C2=C(Cl)Cl)c(C(F)F)n1 (centres unmarked) [A1.1 from WO-2008/131901, N-[9-(dichloromethylene)-1,2,3,4-tetrahydro-1,4-methanonaphthalen-5-yl]-3-(difluoromethyl)-1-methyl-1H-pyrazole-4-carboxamide, reference compound] | – | – | 88% | Efficacy ([1]; 250 ppm): 75%; protection [1]: at least 70%
5 | CC(C)C1C2CCC1c1c(NC(=O)c3cn(C)nc3C(F)F)cccc12 (centres unmarked) [Example 15.202, 3-(difluoromethyl)-N-(9-isopropyl-1,2,3,4-tetrahydro-1,4-methanonaphthalen-5-yl)-1-methyl-1H-pyrazole-4-carboxamide, reference compound] | – | – | – | protection [1]: average (less than 50%) protection to good (at least 70%) protection
6 | CCC(CC(C)C)c1ccccc1NC(=O)c1c(C(F)F)nn(C)c1F (centres unmarked) [Example 20] | 4.28 | – | – | Efficacy (Alternaria solani): 90%
7 | Cn1nc(C(F)F)c(C(=S)Nc2ccccc2CC[Si](C)(C)C)c1Cl [Example 25] | 4.56 | – | 88% | Efficacy (Puccinia triticina): 100%
8 | Cc1nn(C)c(F)c1C(=O)Nc1ccccc1C(C)CC(C)C (centres unmarked) [I-21 from WO-2003/010149, 5-fluoro-1,3-dimethyl-N-[2-(4-methylpentan-2-yl)phenyl]-1H-pyrazole-4-carboxamide, reference compound] | – | – | 40% | Efficacy ([1]; 250 ppm): 20%; protection [1]: less than 40%
9 | Cn1nc(C(F)F)c(C(=O)Nc2ccc(Oc3ccccc3)cc2)c1F [compound 268] | – | 3.29 | – | –

The next lines start with results.

Row | logP [2, 3] | logP [2, 4] | Compound | Efficacy ([1]; 500 ppm) | other results
10 | 3.34 | – | COC(C)(C)C#Cc1ccccc1NC(=O)c1c(C(F)F)nn(C)c1F [Example 19] | – | Efficacy (Alternaria solani): 80%
11 | 2.88 | – | CC(C)Oc1cccc(NC(=O)c2c(C(F)F)nn(C)c2F)c1 [Example 170] | 86% | Efficacy (Puccinia triticina): 100%
12 | 3.17 | – | Cn1nc(C(F)F)c(C(=O)Nc2ccc3c(c2)CCC3)c1Cl [Example 193] | 75% | Efficacy (Puccinia triticina): 100%
13 | 4.56 | – | Cc1cc(C)c(-c2cccc(NC(=O)c3c(C(F)F)nn(C)c3Cl)c2)c(C)c1 [Example 212] | 75% | Efficacy (Puccinia triticina): 86%
14 | – | 4.44 | Cn1nc(C(F)F)c(C(=O)Nc2ccc(C3CCCCC3)cc2)c1Cl [compound 263] | – | –
15 | – | 3.33 | Cn1nc(C(F)F)c(C(=O)Nc2ccc(-c3ccccc3)cc2)c1F [compound 264] | – | –
16 | – | 3.50 | Cn1nc(C(F)F)c(C(=O)Nc2ccc(-c3ccccc3)cc2)c1Cl [compound 265] | – | –
17 | – | 4.51 | Cn1nc(C(F)F)c(C(=O)Nc2ccc(-c3cc(Cl)cc(Cl)c3)cc2)c1F [compound 266] | – | –
18 | – | 4.72 | Cn1nc(C(F)F)c(C(=O)Nc2ccc(-c3cc(Cl)cc(Cl)c3)cc2)c1Cl [compound 267] | – | –
